In brackets after ≈: the same amount, converted by molar mass.
Legend:
[1] = target: T1, progestogen receptor (PRa) (Homo sapiens, UniProt P06401); assay: Binding activity on human nuclear receptor PR; conditions: mean ± SD, n = 4
T1 sequence (P06401 1-769 isoform P06401-2): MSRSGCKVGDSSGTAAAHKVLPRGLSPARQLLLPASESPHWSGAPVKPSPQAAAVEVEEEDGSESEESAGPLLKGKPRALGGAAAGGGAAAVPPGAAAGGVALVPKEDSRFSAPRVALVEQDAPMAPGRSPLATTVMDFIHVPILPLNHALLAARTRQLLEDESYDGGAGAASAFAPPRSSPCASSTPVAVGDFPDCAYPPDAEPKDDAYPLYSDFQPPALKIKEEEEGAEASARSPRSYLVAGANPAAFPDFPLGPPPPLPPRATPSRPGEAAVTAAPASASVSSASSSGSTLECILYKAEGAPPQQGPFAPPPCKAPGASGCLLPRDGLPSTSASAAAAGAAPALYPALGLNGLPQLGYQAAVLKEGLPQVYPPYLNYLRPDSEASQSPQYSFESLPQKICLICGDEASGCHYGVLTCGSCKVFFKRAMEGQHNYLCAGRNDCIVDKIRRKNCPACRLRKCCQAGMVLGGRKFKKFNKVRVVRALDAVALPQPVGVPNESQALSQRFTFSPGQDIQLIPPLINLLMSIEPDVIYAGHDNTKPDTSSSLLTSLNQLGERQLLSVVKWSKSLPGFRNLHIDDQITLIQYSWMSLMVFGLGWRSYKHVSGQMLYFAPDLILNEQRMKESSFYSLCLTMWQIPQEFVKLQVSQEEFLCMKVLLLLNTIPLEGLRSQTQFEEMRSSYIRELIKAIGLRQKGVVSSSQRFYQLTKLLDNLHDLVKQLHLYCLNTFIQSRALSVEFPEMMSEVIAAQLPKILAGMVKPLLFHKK
Protocol: Buffer solution is composed of 25 mM NaPO4, 20 mM NaMoO4, 10 mM KF and 10% glycerol (pH=7.3) and stored under 4° C. Stock solution is prepared with CHAPS and DTT and stored under −20° C. […] Add 2.5 μl/hole into 96-pore plate. Take out appropriate amount of buffer solution reserve into solution to make the final concentration of CHAPS and DDT to become 0.25 mM and 2 mM respectively. Add protease inhibitors (aprotinin and leupeptin) to make its final concentration to become 1 μg/μl, and place in an ice bath. After adding human nuclear receptor GR (1:8), PR (1:100), ER (1:2000), AR (1:200) and MR (1:40) into the reaction system respectively, adequately mix suitable quantity of [^3H]-dexamethasone, [^3H]-progesterone, [^3H]-estradiol and [^3H]-DHT (from Amersham), rapidly add into 96-pore plate (100 μl/pore) and incubate overnight under 4° C. On the next day, add 25 μl of hydroxyapatite suspension into each pore and mix with shaking. After incubating for 10 min, separate by centrifuge for 3 min at 2500 rpm. The precipitate is washed with 100 μl of buffer solution and separated by centrifuge twice. Add 150 μl of scintillation solution (from Perkin Elmer) into each pore, mix with shaking and count by MicroBeta counter.

[2] = system: HIV-1 AZT-resistant strain 018c P24 antigen; assay: Inhibition of HIV-1 018c P24 antigen in PBMC cell culture; format: cell-based; conditions: for EC50: Human immunodeficiency virus 1, PBMC, 2 h, PBMC, administration after adsorbing 2 hours; for EC50 / SI: 018c; for SI: SI=CC50/EC50
Protocol: Collect cells with curette, infect cells with 10^−2 AZT sensitive (018a) or AZT resistant (018c) virus strain liquid, and adsorb for 2 hours, Wash off unabsorbed virus with 1640 culture medium without serum, prepare cells infected by virus to 1×10^6/ml with culture solution, and inoculate on 96-pore culture plate, 100 μl/pore. […] Set cell control group and virus infected cell control group. Incubate under 37° C. and 5% CO2. On the fourth day (96 hours), pipette out the supernatant liquid and store under −20° C. for determination of HIV-1 P24 antigen titer and calculation of drug inhibitory action. Add MTT staining to cells for determination of cytotoxicity. Determination of cytotoxicity by MTT staining: Add 10 μl of 5 mg/ml MTT stain into each pore, continue to incubate under 37° C., 5% CO2 and saturated humidity for 4 hours. […] Determine the HIV-1 P24 antigen titer according to the operation procedure provided by the HIV-1 P24 antigen reagent kit. Compare the drug-added group with virus control group. […] Calculation method of 50% toxic concentration (CC50), 50% effective concentration (EC50) and selection index (SI):
(3) Calculation Method of Selection Index (SI) on HIV-1 P24 Antigen in Cell Culture SI=CC50/EC50

thymus gland cells = assay: Anti-glucocorticoid activity test, [3H]-TdR incorporation in rat thymus gland cells; format: cell-based; conditions: for Antagonism against dexamethasone (incorporation rate of [3H]-TdR): n = 4
Protocol: Clean female SD rats, body weight 200-250 g, are fed with certain quantity of food and freely drink water. The temperature is controlled at about 24° C. and an illumination cycle are for 11 hours by day and 13 hours at night. All animals are observed for 1 week before experiment. Rats are anesthetized with ethyl ether. Incisions are made on two sides below costal arch of ribs on dorsal position of rats to extirpate adrenal glands. The rats are fed with physiological saline after operation. On the seventh day, animals are acutely executed. Take out thymus gland to place in to HBSS buffer solution, wash twice, remove connective tissue, cut the tissue with scissors, lightly grind with homogenizer, filter with three layers of gauze, and centrifuge the filtrate for 5 min (500 rpm). Wash the precipitated cells twice with HBSS, re-suspend the cells in RPMI1640 culture medium for cell count and cell survival rate determination, and adjust cell concentration to 1×10^7/ml. Determination of anti-glucocorticoid activity: Add tested compound into culture medium, reaction concentration 6×10^−[…], and place in 37° C. incubator for 3 hours. Add thymus gland cells to make cell concentration to become 10^7/ml and incubate at 37° C. for 3 hours. Add 1 μCi of label substance, mix, and incubate for 1 hour. Add 100 μl of ice cold 5% trichloroacetic acid to end the reaction. Place the test tube on ice and wash twice with 2 ml of ice cold 5% trichloroacetic acid and centrifuge twice, 500 rpm×5 min, Add 0.5 ml of 1N NaOH to dissolve the precipitated cells, pipet out the liquid, dry the residue with cotton stick, place into same scintillation bottle, and determine the radioactivity by liquid scintillation counter.
Calculate the incorporation rate of [^3H]-TdR:
In which: T=[^3H]-TdR count without presence of compound, Td=count with presence of compound, and NSB=non-specific adsorption.
Inhibition rate=100%−incorporation rate

[3] = Rattus norvegicus, read-out: Residual inhibition rate of dexamethasone

In the case of `CC#C[C@]1(O)CC[C@H]2[C@@H]3CCC4=CC(=O)CCC4=C3[C@@H](c3ccc(N(C)C4CCCCC4)cc3)C[C@@]21C` [Cymipristone, 11β-[4-(N-methyl-N-cyclohexylamino)phenyl]-17α-(1-propynyl)-17β-hydroxyl-4,9-estradiene-3-one], the IC50 [1] is reported as 5.2 ± 0.26 nM, the EC50 ([2]; Average) is reported as 7.9 µg/mL (≈ 15.9 µM) and the EC50 ([2]; Experiment 1) is reported as 8.42 µg/mL (≈ 16.9 µM). The EC50 ([2]; Experiment 2) was 7.38 µg/mL (≈ 14.8 µM), the SI ([2]; Average) was 13.18 and the SI ([2]; Experiment 1) was 12.21. The SI ([2]; Experiment 2) was 14.15, the “Cross resistance with zidovudine (AZT) (in words)” value ([2]; conclusion) was “no cross resistance” and the “Anti-glucocorticoid activity (in words)” value (thymus gland cells) was “Result shows that cymipristone has anti-glucocorticoid activity”. The activity at 0.06 µM (thymus gland cells; [3]) was 35.2 ± 2.4%, the activity at 0.2 µM (thymus gland cells; [3]) was 57.7 ± 3.5% and the activity at 0.6 µM (thymus gland cells; [3]) was 42.2 ± 1.9%. The activity at 2 µM (thymus gland cells; [3]) was 64.1 ± 5.6%, the “Antagonism against dexamethasone (incorporation rate of [3H]-TdR)” value (“Antagonism against dexamethasone” below) (thymus gland cells; cymipristone 2 × 10^−6 mol/L with dexamethasone 6×10^−8 mol/L) was 63.6 ± 5.1% and the “Antagonism against dexamethasone” value (thymus gland cells; cymipristone 2 × 10^−7 mol/L with dexamethasone 6×10^−8 mol/L) was 67.2 ± 2.9%. The “Antagonism against dexamethasone” value (thymus gland cells; cymipristone 6 × 10^−7 mol/L with dexamethasone 6×10^−8 mol/L) was 76.0 ± 3.8% and the “Antagonism against dexamethasone” value (thymus gland cells; cymipristone 6 × 10^−8 mol/L with dexamethasone 6×10^−8 mol/L) was 80.0 ± 4.3%.

Reference: patent US20090111781A1, “Use of Cymipristone Type Compounds in Aids Treatment” (SHANGHAI THREE-ALLIANCE BIOTECHNOLOGIES CO., LTD., priority 2005, published 2009)
